The values below come from ChEMBL document CHEMBL1201862, “PubChem BioAssay data set” (2004).

Test systems include NCI-H226; TK-10; PC-3; SF-539; RXF 393; HCC 2998; NCI-H23; K562; A549; SK-MEL-5; NCI/ADR-RES; UACC-62; MDA-MB-231; KM12; HCT-116; SK-MEL-2; T47D; HL-60; COLO 205; OVCAR-3.
Experiment in all cases: inhibition of tumour cell growth, NCI panel, 48 h

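How tested: cells in 96-well plates exposed to compound for 48 hours at five concentrations. GI50 is the concentration that inhibits growth by half.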 The source made the active and inactive calls. No stated cut-off is given here; in the data, active = GI50 up to about 1.1 µM and inactive = higher.

For `[O-]c1c2cc(-[n+]3c(-c4ccccc4)cc(-c4ccccc4)cc3-c3ccccc3)cc1CO[C@@H](c1ccccc1)[C@H](c1ccccc1)OCCOCCO[C@@H](c1ccccc1)[C@H](c1ccccc1)OC2`, the GI50 was 0.0885 µM (active) in the experiment on NCI-H226; 0.24 µM (active) in the experiment with TK-10; 0.039 µM (active) with PC-3; 0.408 µM (active) with SF-539; 0.108 µM (active) in the experiment with RXF 393; 0.181 µM (active) in the experiment with HCC 2998. Further, the GI50 with NCI-H23 is 0.0574 µM (active); with K562 it was 0.0284 µM (active); with A549 it was 0.0451 µM (active); in the experiment on SK-MEL-5, 0.03 µM (active); in the experiment on NCI/ADR-RES, 1.14 µM (inactive); in the experiment with UACC-62 it was 0.0577 µM (active). The GI50 is 0.104 µM (active) in the experiment on MDA-MB-231; 0.0444 µM (active) in the experiment with KM12; 0.0362 µM (active) with HCT-116; 0.0394 µM (active) in the experiment on SK-MEL-2; 0.0344 µM (active) with T47D; 0.0204 µM (active) in the experiment on HL-60. Also, the GI50 was 0.0195 µM (active) in the experiment on COLO 205 and 0.0324 µM (active) in the experiment on OVCAR-3.
Take `Cc1nnc2n1N=C(c1cc(F)c(Cl)cc1Cl)/C(=C/c1ccc3c(c1)OCO3)S2`: the GI50 in the experiment with NCI-H226 is > 100 µM (inactive); in the experiment with TK-10 it was > 100 µM (inactive); with PC-3, 63.1 µM (inactive); in the experiment on SF-539, > 100 µM (inactive); in the experiment with RXF 393, 51.3 µM (inactive); in the experiment on HCC 2998 it was 48.4 µM (inactive). In addition, the GI50 in the experiment with NCI-H23 is 90.8 µM (inactive); in the experiment on K562, > 100 µM (inactive); in the experiment with A549 it was > 100 µM (inactive); with SK-MEL-5 it was > 100 µM (inactive); in the experiment with NCI/ADR-RES, 69.2 µM (inactive); with UACC-62, 62.8 µM (inactive). For the same compound, the GI50 with MDA-MB-231 was > 100 µM (inactive); with KM12, > 100 µM (inactive); in the experiment with HCT-116, 47.8 µM (inactive); in the experiment with SK-MEL-2, 44 µM (inactive); with T47D, 70.6 µM (inactive); in the experiment with HL-60 it was 40.4 µM (inactive). Moreover, the GI50 in the experiment with COLO 205 was > 100 µM (inactive); in the experiment on OVCAR-3 it was 34.4 µM (inactive).
